In patent US9775797B2, “Personal care composition” (Conopco, Inc., priority 2012, dated 2017):

System: HaCaT and HeMnDP co-culture
Assay: coculture melanin content assay (after Calcein-AM viability check)
Assay type: cell-based
Details: melanin content vs control, 72 hrs incubation
Method: The samples at various concentrations were analysed for skin lightening efficacy using the coculture melanin content assay, the details of which are given below: Set up of Co-cultures: • 1. 4*10^4 HaCaT and 4×10^4 […] (1:1) per well (single wells/treatment) in 12-well Nunc plates on Day 0 are seeded so as to establish a co-culture system. • 2. The volume of media per well should be 1 mL of a 1:1 mix of Melanocyte Growth Media and Keratinocyte Growth Media • 3. 24 hrs later, fresh media containing actives are added. Again 1 mL of a 1:1 mix of MGM and KGM for active addition are used. • 4. Plates are incubated for 72 hrs in a 37° C. CO2 incubator. • 5. […] In the meantime, the fluorescence is measured (excitation at 490 nm and emission at 520 nm) using TECAN instrument after 30 min of dye incubation. • 5. After reading the plate, the buffer containing Calcein is removed and melanin content assay is then carried out. […] After the reading for Calcein-AM is taken, the buffer containing Calcein-AM is removed from all the wells. • 2. […] The absorbance is measured in the Lab-5 Tecan instrument at 405 nm. • 6. For non-cytotoxic concentrations (based on Calcein cut-off of ±15% of control), the average MCA is calculated and reported as MCA as percentage of the control sample. The % inhibition is then calculated. […]

O=C1C[C@@H](c2ccc(O)c(O[C@@H]3O[C@H](CO)[C@@H](O)[C@H](O)[C@H]3O)c2)Oc2cc(O[C@@H]3O[C@H](CO)[C@@H](O)[C@H](O)[C@H]3O)ccc21 [Butrin, butrin]
% Inhibition (sample concentration 0.5 ppm): 31%

O=c1cc(CO)occ1O [Example 3, Kojic Acid]
inhibition at 14.2 ppm (Homo sapiens, HaCaT, sample concentration 14.2 ppm): 22%
